Results as given in ChEMBL document CHEMBL1145536, “Low-oxygen-recovery assay for high-throughput screening of compounds against nonreplicating Mycobacterium tuberculosis” (2007).
Values after ≈ are worked out from the molar mass of the structure shown.

Key:
Assay type in all cases: functional
[1] = test system: Mycobacterium tuberculosis; experiment: Antimicrobial activity against non replicating persistence Mycobacterium tuberculosis H37Rv in anaerobic condition assessed as relative light unit after 11 days by LORA assay; details: 264 h
[2] = test system: Mycobacterium tuberculosis; experiment: Antimicrobial activity against non replicating persistence Mycobacterium tuberculosis H37Rv in aerobic condition assessed by relative light units after 7 days; details: 168 h
[3] = test system: Mycobacterium tuberculosis; experiment: Antimicrobial activity against non replicating persistence Mycobacterium tuberculosis H37Rv in aerobic condition assessed as bacterial density after 7 days; details: 168 h
[4] = test system: Mycobacterium tuberculosis; experiment: Antimicrobial activity against non replicating persistence Mycobacterium tuberculosis H37Rv in anaerobic condition assessed as bacterial density after 10 days; details: 240 h

Compound	MIC [1]	MIC [2]	MIC [3]	MIC [4]
CC[C@H]1OC(=O)[C@H](C)[C@@H](O[C@H]2C[C@@](C)(OC)[C@@H](O)[C@H](C)O2)[C@H](C)[C@@H](O[C@@H]2O[C@H](C)C[C@H](N(C)C)[C@H]2O)[C@](C)(OC)C[C@@H](C)C(=O)[C@H](C)[C@@H]2N(NCCCc3ccnc4ccccc34)C(=O)O[C@@]21C	2.7 µM (≈ 2.58 µg/mL)	0.8 µM (≈ 0.766 µg/mL)	1.8 µM (≈ 1.72 µg/mL)	1.3 µM (≈ 1.24 µg/mL)
CCC[C@@H]1C[C@@H](C(=O)N[C@H](C(C)Cl)[C@H]2O[C@H](SC)[C@H](O)[C@@H](O)[C@H]2O)N(C)C1 (single isomer, unassigned) [CLINDAMYCIN]	> 128 µM	> 128 µM	> 128 µM	> 128 µM
CN[C@@H]1[C@H](O[C@H]2[C@H](O[C@H]3[C@H](O)[C@@H](O)[C@H](N=C(N)N)[C@@H](O)[C@@H]3N=C(N)N)O[C@@H](C)[C@]2(O)C=O)O[C@@H](CO)[C@H](O)[C@H]1O (stereo in doubt) [STREPTOMYCIN]	1.2 µM (≈ 0.698 µg/mL)	0.5 µM (≈ 0.291 µg/mL)	≤ 0.5 µM	0.8 µM (≈ 0.465 µg/mL)
NCC[C@H](O)C(=O)N[C@@H]1C[C@H](N)[C@@H](O[C@H]2O[C@H](CN)[C@@H](O)[C@H](O)[C@H]2O)[C@H](O)[C@H]1O[C@H]1O[C@H](CO)[C@@H](O)[C@H](N)[C@H]1O [AMIKACIN]	≤ 0.5 µM	0.5 µM (≈ 0.293 µg/mL)	≤ 0.5 µM	≤ 0.5 µM
Nc1ccc(C(=O)O)c(O)c1 [AMINOSALICYLIC ACID]	> 128 µM	12.3 µM (≈ 1.88 µg/mL)	12.3 µM (≈ 1.88 µg/mL)	> 128 µM
CC(=O)Nc1ccc(/C=N/NC(N)=S)cc1 [AMITHIOZONE]	> 128 µM	14.6 µM (≈ 3.45 µg/mL)	31.3 µM (≈ 7.4 µg/mL)	70.4 µM (≈ 16.6 µg/mL)
O=C(O)c1cn(C2CC2)c2cc(N3CCNCC3)c(F)cc2c1=O [CIPROFLOXACIN]	> 128 µM	1.5 µM (≈ 0.497 µg/mL)	≤ 0.5 µM	33 µM (≈ 10.9 µg/mL)
CC[C@H]1OC(=O)[C@H](C)[C@@H](O[C@H]2C[C@@](C)(OC)[C@@H](O)[C@H](C)O2)[C@H](C)[C@@H](O[C@@H]2O[C@H](C)C[C@H](N(C)C)[C@H]2O)[C@](C)(OC)C[C@@H](C)C(=O)[C@H](C)[C@@H](O)[C@]1(C)O [CLARITHROMYCIN]	> 128 µM	13.4 µM (≈ 10 µg/mL)	1.6 µM (≈ 1.2 µg/mL)	18.7 µM (≈ 14 µg/mL)
CC(C)/N=c1\cc2n(-c3ccc(Cl)cc3)c3ccccc3nc-2cc1Nc1ccc(Cl)cc1 [CLOFAZIMINE]	1.5 µM (≈ 0.71 µg/mL)	≤ 0.5 µM	0.7 µM (≈ 0.331 µg/mL)	0.8 µM (≈ 0.379 µg/mL)
N[C@@H]1CONC1=O [CYCLOSERINE]	> 128 µM	63.7 µM (≈ 6.5 µg/mL)	60.5 µM (≈ 6.18 µg/mL)	125 µM (≈ 12.7 µg/mL)
CC[C@@H](CO)NCCN[C@@H](CC)CO [ETHAMBUTOL]	> 128 µM	1.8 µM (≈ 0.368 µg/mL)	1 µM (≈ 0.204 µg/mL)	> 128 µM
O=C1OCCN1/N=C/c1ccc([N+](=O)[O-])o1 [FURAZOLIDONE]	9.7 µM (≈ 2.18 µg/mL)	77.4 µM (≈ 17.4 µg/mL)	1 µM (≈ 0.225 µg/mL)	44.8 µM (≈ 10.1 µg/mL)
CC(=O)O[C@H]1C[C@@]2(C)[C@@H](C[C@@H](O)[C@H]3[C@@]4(C)CC[C@@H](O)[C@@H](C)[C@@H]4CC[C@@]32C)/C1=C(\CCC=C(C)C)C(=O)O [FUSIDIC ACID]	57.7 µM (≈ 29.8 µg/mL)	15.8 µM (≈ 8.16 µg/mL)	7 µM (≈ 3.62 µg/mL)	7.2 µM (≈ 3.72 µg/mL)
NNC(=O)c1ccncc1 [ISONIAZID]	> 128 µM	≤ 0.5 µM	≤ 0.5 µM	> 128 µM
CC(=O)N1CCN(c2ccc(OC[C@H]3CO[C@](Cn4ccnc4)(c4ccc(Cl)cc4Cl)O3)cc2)CC1 [KETOCONAZOLE]	53 µM (≈ 28.2 µg/mL)	13.9 µM (≈ 7.39 µg/mL)	7.6 µM (≈ 4.04 µg/mL)	53.3 µM (≈ 28.3 µg/mL)
CCC[C@@H]1C[C@@H](C(=O)N[C@@H]([C@H]2O[C@H](SC)[C@H](O)[C@@H](O)[C@H]2O)[C@@H](C)O)N(C)C1 [LINCOMYCIN]	> 128 µM	> 128 µM	104 µM (≈ 42.1 µg/mL)	> 128 µM
CC(=O)NC[C@H]1CN(c2ccc(N3CCOCC3)c(F)c2)C(=O)O1 [LINEZOLID]	65.2 µM (≈ 22 µg/mL)	6.3 µM (≈ 2.13 µg/mL)	1.9 µM (≈ 0.641 µg/mL)	> 128 µM
Cc1ncc([N+](=O)[O-])n1CCO [METRONIDAZOLE]	> 128 µM	> 128 µM	> 128 µM	40 µM (≈ 6.85 µg/mL)
CN(C)c1ccc(O)c2c1C[C@H]1C[C@H]3[C@H](N(C)C)C(O)=C(C(N)=O)C(=O)[C@@]3(O)C(O)=C1C2=O [MINOCYCLINE]	53.5 µM (≈ 24.5 µg/mL)	7.1 µM (≈ 3.25 µg/mL)	7.2 µM (≈ 3.29 µg/mL)	38.4 µM (≈ 17.6 µg/mL)
COc1c(N2C[C@@H]3CCCN[C@@H]3C2)c(F)cc2c(=O)c(C(=O)O)cn(C3CC3)c12 [MOXIFLOXACIN]	15.9 µM (≈ 6.38 µg/mL)	0.5 µM (≈ 0.201 µg/mL)	≤ 0.5 µM	≤ 0.5 µM
O=C(Nc1ccc([N+](=O)[O-])cc1Cl)c1cc(Cl)ccc1O [NICLOSAMIDE]	≤ 0.5 µM	≤ 0.5 µM	≤ 0.5 µM	0.9 µM (≈ 0.294 µg/mL)
O=C1CN(/N=C/c2ccc([N+](=O)[O-])o2)C(=O)N1 [NITROFURANTOIN]	63.9 µM (≈ 15.2 µg/mL)	> 128 µM	0.9 µM (≈ 0.214 µg/mL)	32 µM (≈ 7.62 µg/mL)
CC1COc2c(N3CCN(C)CC3)c(F)cc3c(=O)c(C(=O)O)cn1c23 (stereo not given) [OFLOXACIN]	> 128 µM	2.3 µM (≈ 0.831 µg/mL)	0.7 µM (≈ 0.253 µg/mL)	24.2 µM (≈ 8.75 µg/mL)
O=[N+]([O-])c1cn2c(n1)OC[C@@H](OCc1ccc(OC(F)(F)F)cc1)C2 [PRETOMANID]	3.1 µM (≈ 1.11 µg/mL)	0.6 µM (≈ 0.216 µg/mL)	0.7 µM (≈ 0.251 µg/mL)	12 µM (≈ 4.31 µg/mL)
NC(=O)c1cnccn1 [PYRAZINAMIDE]	> 128 µM	> 128 µM	> 128 µM	96 µM (≈ 11.8 µg/mL)
CO[C@H]1/C=C/O[C@@]2(C)Oc3c(C)c(O)c4c(c3C2=O)C2=NC3(CCN(CC(C)C)CC3)NC2=C(NC(=O)/C(C)=C\C=C\[C@H](C)[C@H](O)[C@@H](C)[C@@H](O)[C@@H](C)[C@H](OC(C)=O)[C@@H]1C)C4=O [RIFABUTIN]	≤ 0.5 µM	0.5 µM (≈ 0.424 µg/mL)	≤ 0.5 µM	≤ 0.5 µM
CO[C@H]1/C=C/O[C@@]2(C)Oc3c(C)c(O)c4c(O)c(c(/C=N/N5CCN(C)CC5)c(O)c4c3C2=O)NC(=O)/C(C)=C\C=C\[C@H](C)[C@H](O)[C@@H](C)[C@@H](O)[C@@H](C)[C@H](OC(C)=O)[C@@H]1C [RIFAMPIN]	1.8 µM (≈ 1.48 µg/mL)	0.5 µM (≈ 0.411 µg/mL)	≤ 0.5 µM	≤ 0.5 µM
C[C@]1(Cn2ccnn2)[C@H](C(=O)O)N2C(=O)C[C@H]2S1(=O)=O [TAZOBACTAM]	> 128 µM	> 128 µM	> 128 µM	> 128 µM
COc1cc(Cc2cnc(N)nc2N)cc(OC)c1OC [TRIMETHOPRIM]	> 128 µM	> 128 µM	> 128 µM	83.2 µM (≈ 24.2 µg/mL)
CN[C@H](CC(C)C)C(=O)N[C@H]1C(=O)N[C@@H](CC(N)=O)C(=O)N[C@H]2C(=O)N[C@H]3C(=O)N[C@H](C(=O)N[C@H](C(=O)O)c4cc(O)cc(O)c4-c4cc3ccc4O)[C@H](O)c3ccc(c(Cl)c3)Oc3cc2cc(c3O[C@@H]2O[C@H](CO)[C@@H](O)[C@H](O)[C@H]2O[C@H]2C[C@](C)(N)[C@H](O)[C@H](C)O2)Oc2ccc(cc2Cl)[C@H]1O [VANCOMYCIN]	> 128 µM	> 128 µM	15.5 µM (≈ 22.5 µg/mL)	128 µM (≈ 186 µg/mL)
